Source: patent publication US20240199600A1, “CONDENSED HETEROCYCLIC COMPOUND HAVING A SULFONAMIDE GROUP OR SALT THEREOF, AGRICULTURAL OR HORTICULTURAL INSECTICIDE OR ANIMAL ECTOPARASITE OR ENDOPARASITE CONTROL AGENT COMPRISING THE COMPOUND OR THE SALT THEREOF, AND METHOD FOR USING THE COMPOUND OR THE SALT THEREOF, THE INSECTICIDE, OR THE …” (NIHON NOHYAKU CO., LTD., priority 2021, published 2024)

Tests used:
[1] = test system: Plutella xylostella; assay: whole plant or invertebrate; conditions: in Brassica rapa, 144 h, read-out: insecticidal efficacy (corrected mortality rate), activity level
Protocol: Insecticidal test on Plutella xylostella
Adults of P. xylostella were released onto Chinese cabbage seedlings and allowed to lay eggs thereon. […] After air-dried, the seedlings were kept in a thermostatic chamber at 25° C. […] This test was conducted in triplicate using 10 adults of P. xviostella per plot.
Corrected mortality rate (%)100×(Number of hatched larvae in a non-treatment plot-Number of hatched larvae in a treatment plot)/Number of hatched larvae in a non-treatment plot [Math. 3]

[2] = test system: Laodelphax striatelius; assay: whole plant or invertebrate; conditions: in Oryza sativa, 192 h, read-out: insecticidal efficacy (corrected mortality rate), activity level
From the text: Insecticidal test on Laodelphax striatelius
The sulfonamide group-containing condensed heterocyclic compounds represented by the general formula (1) of the present invention or salts thereof were separately dispersed in water and diluted to 500 ppm. Rice plant seedlings (variety: Nihonbare) were dipped in the agrochenrical dispersions for 30 seconds. After air-dried, each seedling was put into a separate glass test tube and inoculated with ten 3rd-instar larvae of L, striatellus, and then the glass test tubes were capped with cotton plugs. At 8 days after the inoculation, the numbers of surviving larvae and dead larvae were counted to determine the survival rate, the corrected mortality rate was calculated according to the formula shown below, and the insecticidal efficacy was evaluated according to the criteria shown below.

CN(C)S(=O)(=O)c1cc(C2CC2)cnc1-c1nc2cc(SC(F)(F)F)ccc2o1 [Compound 4-6, 5-cyclopropyl-N,N-dimethyl-2-(5-trifluoromethylthiobenzoxazol-2-yl)pyridine-3-sulfonamide]
mortality at 500 ppm [1]: 100% | mortality at 500 ppm [2]: 100%
